# “Also recorded” adds a separate entry of the source.
# How the values were obtained:
# [1] = system: α5^+ HT29 colon carcinoma cells, CEF's and HUVEC's; assay: Cell adhesion assay, attachment to vitronectin; assay type: cell-based; details: vitronectin coating
# Description: (§1) HT29 integrin α5β1^+ cells, integrin α5β1^− colon carcinoma cells (Varner et al., Mol. Biol. Cell 6:725–740 (1995)), and chick embryo fibroblasts (CEF's) were maintained in DMEM high glucose supplemented with 10% fetal bovine serum (FBS) and gentamycin. Human umbilical vein endothelial cells (HUVEC's) were maintained in M199 medium containing sodium bicarbonate, HEPES, heparin, endothelial cell growth supplement, 20% FBS and gentamycin. Culture media and reagents were from Irvine Scientific (Irvine, Calif.).
# The wells of 48 well culture dishes (Costar, Inc.) were coated with 1 μg/ml vitronectin, 2 μg/ml fibronectin (chick embryo fibroblasts and HUVEC's) or 10 μg/ml fibronectin (HT29-α5^+ cells) for 1 hr at 37° C., then blocked with 2% heat denatured BSA in PBS for 1 hr. […]
# (§2) Cells were allowed to adhere to dishes for 20 min at 37° C. […] Crystal violet was extracted by incubation for 15 min in 10% acetic acid and absorbance at 562 nm determined as an indicator of number of cells bound. […]
# [2] = system: VEGF-induced angiogenesis on the chick CAM; assay: In ovo chick CAM angiogenesis assay, VEGF stimulated; assay type: in vivo; details: VEGF stimulated CAM
# Description: (§3) Ten day old embryonated chicken eggs (McIntyre Poultry; Ramona Calif.) were candled to illuminate blood vessels under the shell and an area with a minimum of small blood vessels is identified. The CAM was dropped away from the eggshell in this area by grinding a small hole in the mineralized shell and applying pressure to the underlying inner shell membrane. This procedure caused an air pocket to shift from the wide end of the egg to the identified area and forcing a circular region of the CAM approximately 2 cm in diameter to drop away from the shell. A window was cut in the egg shell and a cortisone acetate pre-treated filter disc 5 mm in diameter that had been saturated in 1 μg/ml bFGF, VEGF, TNFα, IL-8 (Genzyme, Inc.; Cambridge Mass.) or saline was placed on the CAM. The window in the shell was sealed with adhesive tape and the egg was incubated for four days.
# (§4) Anti-fibronectin antibodies (25 μg in 25 μl) also were applied topically to the CAM.
# (§5) Fibronectin, vitronectin and fibronectin fragments (59 pmol in a final volume of 25 μl) were applied to stimulated or unstimulated CAM's. Peptide or small molecule antagonists of α5β1 (at a final serum concentration of 0–25 μM) also were injected intravenously into the chick circulation 24 hr later. CAM's were harvested on the fourth day of stimulation. Blood vessel branch points in the 5 mm filter disk area were counted at 30× magnification in a blinded fashion as a size-independent quantitative indicator of vascular sprouting in response to growth factors. Angiogenesis is characterized by the sprouting of new vessels in response to growth factors. Thus, counting of blood vessel branch points is a useful quantitative means of obtaining an angiogenic index (Brooks et al., In “Methods in Molecular Biology” (Humana Press 1999). At least ten embryos were used per treatment group. Each experiment was performed a minimum of three times.
# (§6) Data was evaluated in terms of average number of blood vessel branch points per treatment group +/−standard error of measurement . Statistical analyses were performed using Student's t-test. Representative CAMS from each treatment group were photographed at 10X magnification. In some cases, CAM tissue excised from the egg was frozen in OCT (Baxter; McGraw Park Ill.) in liquid nitrogen, cut into 5 μm sections, air dried and processed for immunohistochemical analysis as described in Example I, except without fixation.
# [3] = system: bFGF-induced angiogenesis on the chick CAM; assay: In ovo chick CAM angiogenesis assay, bFGF stimulated; assay type: in vivo; details: bFGF stimulated CAM
# Description: as §3, §4, §5, §6
# [4] = system: HT29 colon carcinoma cells lacking α5β1 expression; assay: Chick CAM tumor assay, HT29; assay type: in vivo; details: HT29 tumors on CAM
# Experimental: The chick CAM tumor assay was performed by placing ten million tumor cells on the surface of a CAM, and culturing the cells for one week. The resulting tumors were excised and cut into 50 mg fragments. […] Forty-eight hours later, CAM's were excised from the egg and the number of blood vessels entering the tumors were counted (as vessel branch points).
# Data was presented as mean blood vessel number per treatment group (+/− standard error of measurement). Each treatment group incorporated at least ten tumors per experiment. Representative tumors were photographed at 10× magnification. Tumors were excised from the egg and tumor weights were determined for each tumor Data was presented as mean tumor weight per treatment group (+/− standard error of measurement). Statistical analyses were performed using Student's t-test.
# HT29 colon carcinoma cells lacking α5β1 expression were grown on the CAM's of 10-day old embryos. These tumor cells secrete several angiogenic growth factors, including VEGF, TGFα, TGFβ, TNFα, and IL-8 (Anzano et al., Cancer Res. 49:2898–2904 (1989); Varner et. al., supra, 1995; Ellis et al., J. Biol. Chem. 273:1052–1057 (1998)). Integrin α5β1 negative tumor cells were used to distinguish the potential anti-tumor effects from anti-vasculature effects of integrin α5β1 antagonists.
# [5] = system: chick embryo fibroblasts (CEF's); assay: Cell adhesion assay, adhesion to fibronectin; assay type: cell-based
# Description: as §1
# (§7) The wells of 48 well culture dishes (Costar, Inc.) were coated with 1 μg/ml vitronectin, 2 μg/ml fibronectin (chick embryo fibroblasts and HUVEC's) or 10 μg/ml fibronectin (HT29-α5^+ cells) for 1 hr at 37° C., then blocked with 2% heat denatured BSA in PBS for 1 hr. Fifty thousand cells in 250 μl of adhesion buffer were added to triplicate wells containing 250 μl of a solution of 50 μg/ml of an anti-α5β1 function blocking antibody (NKI-SAM-1, JBS5 or IIA1), 50 μg/ml of an anti-α5β1 non-function blocking antibody (HA5 or VC5; Pharmingen, Inc.; San Diego Calif.), 10 μM cyclic peptides (Koivunen et al., J. Biol. Chem. 268:20205–20210 (1993); Koivunen et al., J. Cell Biol. 124:373380 (1994)), 0–10 μM SJ749 ((S)-2-{(2,4,6-trimethylphenyl)sulfonyl}amino-3{7-benzyloxycarbonyl-8-(2-pyridinylaminomethyl)-1-oxa-2,7-diazaspiro-{4,4}-non-2-en-3-yl}carbonylamino}propionic acid)), 50 μg/ml of LM609, an anti-αVβ3 function blocking antibody, 50 μg/ml P4C10, an anti-β1 function blocking antibody, 50 μg/ml of an anti-fibronectin cell binding domain monoclonal antibody or 50 μg/ml of an anti-fibronectin N-terminus monoclonal antibody in adhesion buffer (HEPES buffered Hanks balanced salt solution, HBSS, containing 1% BSA, 2 mM MgCl2, 2 mM CaCl2 and 0.2 mM MnCl2).
# (§8) Cells were allowed to adhere to dishes for 20 min at 37° C. Nonadherent cells were removed by washing each well four times with 500 μl of warm adhesion buffer. Adherent cells were then fixed for 15 min with 3.7% paraformaldehyde in PBS and stained with a 2% crystal violet solution. After extensive water washing to remove excess crystal violet, plates were dried overnight. Crystal violet was extracted by incubation for 15 min in 10% acetic acid and absorbance at 562 nm determined as an indicator of number of cells bound. Each experiment was performed in triplicate, with triplicate samples per condition.
# [6] = system: Human umbilical vein endothelial cells (HUVEC's); assay: Cell adhesion assay, adhesion to fibronectin; assay type: cell-based
# Description: as §1, §7, §8
# integrin α5β1 = target: T1, integrin α5β1 (Homo sapiens, UniProt P05556+P08648); assay: Integrin receptor ligand binding assay (biotinylated fibronectin); details: fibronectin as ligand
# T1 construct: Integrin αVβ3 and α5β1 receptor purified from human placenta were obtained from Chemicon International; purchased Chemicon International; host or cells: purified from human placenta (natural tissue)
# T1 sequence (P08648 42-894 limits assumed): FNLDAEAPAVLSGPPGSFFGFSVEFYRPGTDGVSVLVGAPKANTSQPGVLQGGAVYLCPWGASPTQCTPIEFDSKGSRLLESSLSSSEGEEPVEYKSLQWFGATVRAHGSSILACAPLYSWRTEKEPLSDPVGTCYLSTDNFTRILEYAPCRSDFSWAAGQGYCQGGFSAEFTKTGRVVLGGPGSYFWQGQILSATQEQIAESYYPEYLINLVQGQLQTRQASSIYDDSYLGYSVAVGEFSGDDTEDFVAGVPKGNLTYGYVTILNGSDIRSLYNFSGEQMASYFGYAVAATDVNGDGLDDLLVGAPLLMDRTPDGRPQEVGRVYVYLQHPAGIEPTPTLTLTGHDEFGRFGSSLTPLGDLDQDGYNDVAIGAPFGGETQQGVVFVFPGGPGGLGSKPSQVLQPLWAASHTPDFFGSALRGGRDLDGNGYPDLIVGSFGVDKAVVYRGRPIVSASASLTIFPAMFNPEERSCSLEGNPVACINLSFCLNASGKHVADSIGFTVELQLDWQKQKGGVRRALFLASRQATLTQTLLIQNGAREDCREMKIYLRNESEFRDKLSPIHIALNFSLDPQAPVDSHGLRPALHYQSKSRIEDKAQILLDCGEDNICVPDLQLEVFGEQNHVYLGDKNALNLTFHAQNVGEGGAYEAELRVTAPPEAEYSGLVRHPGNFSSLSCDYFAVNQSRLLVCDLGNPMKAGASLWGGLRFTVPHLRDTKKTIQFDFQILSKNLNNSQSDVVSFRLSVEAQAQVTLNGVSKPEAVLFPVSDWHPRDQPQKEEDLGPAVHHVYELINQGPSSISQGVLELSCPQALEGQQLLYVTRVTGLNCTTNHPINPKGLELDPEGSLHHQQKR
# T1 sequence (P08648 895-1049 partner limits assumed): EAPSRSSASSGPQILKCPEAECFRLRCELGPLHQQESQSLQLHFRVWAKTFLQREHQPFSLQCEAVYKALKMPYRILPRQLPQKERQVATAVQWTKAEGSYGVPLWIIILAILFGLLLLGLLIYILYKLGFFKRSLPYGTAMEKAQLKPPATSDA
# T1 sequence (P05556 21-798): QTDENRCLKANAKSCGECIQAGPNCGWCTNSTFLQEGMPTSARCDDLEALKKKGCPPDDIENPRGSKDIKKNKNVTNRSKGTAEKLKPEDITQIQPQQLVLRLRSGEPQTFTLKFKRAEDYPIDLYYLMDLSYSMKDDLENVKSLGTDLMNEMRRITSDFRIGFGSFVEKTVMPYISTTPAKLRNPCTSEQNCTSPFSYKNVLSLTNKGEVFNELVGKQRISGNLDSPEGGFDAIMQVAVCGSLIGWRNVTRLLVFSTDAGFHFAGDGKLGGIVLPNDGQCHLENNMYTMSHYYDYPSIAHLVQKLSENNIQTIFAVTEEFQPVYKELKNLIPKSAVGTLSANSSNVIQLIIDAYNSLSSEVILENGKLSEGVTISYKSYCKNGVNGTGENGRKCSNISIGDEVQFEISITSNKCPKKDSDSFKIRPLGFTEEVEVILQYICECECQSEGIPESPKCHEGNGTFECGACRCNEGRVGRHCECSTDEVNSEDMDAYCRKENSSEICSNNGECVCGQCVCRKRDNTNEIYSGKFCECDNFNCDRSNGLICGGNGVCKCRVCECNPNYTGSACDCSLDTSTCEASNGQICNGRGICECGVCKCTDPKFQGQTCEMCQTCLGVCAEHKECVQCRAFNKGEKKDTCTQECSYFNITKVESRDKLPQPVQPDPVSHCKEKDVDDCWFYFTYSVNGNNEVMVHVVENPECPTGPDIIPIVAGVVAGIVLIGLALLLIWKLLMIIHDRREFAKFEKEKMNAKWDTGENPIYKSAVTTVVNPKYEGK
# Experimental: (§9) Integrin αVβ3 and α5β1 receptor purified from human placenta were obtained from Chemicon International. Platelet integrin αIIbβ3 was purified from platelets according to established procedures. Receptors were coated (100 μl/well) on Costar (3590) high capacity binding plates overnight at 4° C. Coating solution was discarded and plates were washed once with blocking/binding (B/B) buffer (50 mM Tris HCl, pH 7.4, 100 mM NaCl, 2 mM CaCl, 1 mM MgCl2, 1 mM MnCl2 and 1% BSA).
# (§10) One hundred ten microliters of B/B buffer was applied for 60 min at RT. Thirty μl of biotinylated extracellular matrix protein ligand (fibronectin for integrin α5β1, vitronectin for integrin αVβ3 and fibrinogen for integrin αIIbβ3) plus 50 μl of either SJ749 in B/B buffer or B/B buffer alone were added to each well, and incubated for 25 min at RT. Plates were washed twice with B/B buffer and incubated 1 hr at RT, with anti-biotin alkaline phosphatase (100 μl/well) in B/B buffer. Finally, plates were washed twice with B/B followed by the addition of 100 μl of phosphatase substrate (1.5 mg/ml). Reaction was stopped by adding 2N NaOH (25 μl/well), and the developed color was read at 405 nm.
# integrin αVβ3 = target: T2, integrin αVβ3 (Homo sapiens, UniProt P05106+P06756); assay: Integrin receptor ligand binding assay (biotinylated vitronectin); details: vitronectin as ligand
# T2 construct: Integrin αVβ3 and α5β1 receptor purified from human placenta were obtained from Chemicon International; purchased Chemicon International; host or cells: purified from human placenta (natural tissue)
# T2 sequence (P06756 31-889 limits assumed): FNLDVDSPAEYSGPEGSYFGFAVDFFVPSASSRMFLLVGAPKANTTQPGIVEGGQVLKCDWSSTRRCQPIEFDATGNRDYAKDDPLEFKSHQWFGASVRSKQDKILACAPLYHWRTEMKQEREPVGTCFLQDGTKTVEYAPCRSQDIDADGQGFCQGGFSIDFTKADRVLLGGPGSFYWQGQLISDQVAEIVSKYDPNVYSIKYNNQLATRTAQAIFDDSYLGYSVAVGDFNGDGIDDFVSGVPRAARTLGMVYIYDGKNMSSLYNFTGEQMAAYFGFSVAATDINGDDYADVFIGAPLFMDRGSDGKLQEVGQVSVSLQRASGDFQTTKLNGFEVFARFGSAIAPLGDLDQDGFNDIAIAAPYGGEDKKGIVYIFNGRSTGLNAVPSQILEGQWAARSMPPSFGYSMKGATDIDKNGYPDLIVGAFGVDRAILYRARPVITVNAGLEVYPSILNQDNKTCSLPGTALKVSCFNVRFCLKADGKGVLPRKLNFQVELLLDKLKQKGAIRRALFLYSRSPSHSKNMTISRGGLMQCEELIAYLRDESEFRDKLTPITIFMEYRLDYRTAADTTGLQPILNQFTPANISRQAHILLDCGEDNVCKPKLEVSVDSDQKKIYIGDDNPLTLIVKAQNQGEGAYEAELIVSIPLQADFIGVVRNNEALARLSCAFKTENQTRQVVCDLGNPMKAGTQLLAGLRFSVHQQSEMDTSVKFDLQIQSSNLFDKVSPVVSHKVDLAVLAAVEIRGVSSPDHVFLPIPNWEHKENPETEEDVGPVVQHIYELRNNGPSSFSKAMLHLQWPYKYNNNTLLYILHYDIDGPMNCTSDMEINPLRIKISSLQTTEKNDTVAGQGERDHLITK
# T2 sequence (P06756 891-1048 partner limits assumed): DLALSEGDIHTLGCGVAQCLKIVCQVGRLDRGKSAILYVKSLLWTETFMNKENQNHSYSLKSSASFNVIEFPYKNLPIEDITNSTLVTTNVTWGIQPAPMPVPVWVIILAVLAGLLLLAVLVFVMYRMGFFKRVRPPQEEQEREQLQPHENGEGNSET
# T2 sequence (P05106 27-788): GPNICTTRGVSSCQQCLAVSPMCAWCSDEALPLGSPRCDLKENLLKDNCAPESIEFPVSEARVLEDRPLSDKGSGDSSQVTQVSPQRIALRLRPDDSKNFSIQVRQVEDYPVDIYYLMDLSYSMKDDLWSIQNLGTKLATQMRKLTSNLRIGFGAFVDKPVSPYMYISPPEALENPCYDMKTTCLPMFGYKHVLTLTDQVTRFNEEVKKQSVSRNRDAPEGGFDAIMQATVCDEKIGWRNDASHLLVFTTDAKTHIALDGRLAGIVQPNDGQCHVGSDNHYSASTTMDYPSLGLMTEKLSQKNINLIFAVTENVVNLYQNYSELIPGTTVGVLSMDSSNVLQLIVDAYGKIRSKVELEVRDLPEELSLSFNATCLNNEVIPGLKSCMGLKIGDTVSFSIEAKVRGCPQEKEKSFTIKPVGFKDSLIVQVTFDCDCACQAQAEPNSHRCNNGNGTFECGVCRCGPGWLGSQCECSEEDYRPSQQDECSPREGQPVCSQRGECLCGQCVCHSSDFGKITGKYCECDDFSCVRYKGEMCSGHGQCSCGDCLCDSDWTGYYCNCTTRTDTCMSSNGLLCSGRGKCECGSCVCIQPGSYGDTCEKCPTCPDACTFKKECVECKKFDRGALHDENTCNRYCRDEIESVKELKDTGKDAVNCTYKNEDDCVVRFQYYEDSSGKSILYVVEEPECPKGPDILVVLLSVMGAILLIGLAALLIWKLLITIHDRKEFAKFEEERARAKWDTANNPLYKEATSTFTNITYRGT
# Experimental: as §9, §10
# α5^+ HT29 cells = assay: Cell adhesion assay, adhesion to fibronectin; assay type: cell-based, human
# Description: as §1, §7
# as §2, with “C. Nonadherent cells were removed by washing each well four times with 500 μl of warm adhesion buffer.” for “C.”
# HUVEC's = assay: Cell migration assay on fibronectin; assay type: cell-based, human
# Experimental: The lower side of 8 μm pore transwell inserts (Costar, Inc.) were coated with 2 μg/ml of fibronectin, collagen (Collaborative Biomedical Products; Bedford Mass.) or no protein for 1 hr and were blocked with 2% BSA in PBS for 1 hr. The inserts then were placed into 24 well culture dishes containing 500 μl migration buffer in the lower chamber. Twenty-five thousand HUVEC's in 50 μl of migration buffer (HEPES buffered M199 medium containing 1% BSA, 2 mM MgCl2, 2 mM CaCl2 and 0.2 mM MnCl2) were added to the upper chamber of duplicate inserts containing 50 μl of a solution of 50 μg/ml of anti-α5β1 function blocking antibody (NKI-SAM-1, JBS5 or IIA1), 50 μg/ml of anti-α5β1 non-function blocking antibody (HA5 or VC5), or 50 μg/ml of LM609 (an anti-αVβ3 function blocking antibody) in migration buffer, or migration buffer alone.
# Cells were allowed to migrate from the upper to the lower chamber for 4 hr at 37° C. Nonmigratory cells were removed from the upper surface by wiping the upper side with an absorbant tip, and cells that had migrated to the lower side of the transwell insert were fixed for 15 min with 3.7% paraformaldehyde in PBS, then stained with a 2% crystal violet solution. After extensive water washing to remove excess crystal violet, the number of cells that had migrated were counted in three representative high power (200×) fields per insert. […]
# [7] = system: growth factor-induced angiogenesis in chick embryos; assay: Chick CAM angiogenesis assay, systemic administration, growth factor not specified; assay type: in vivo; details: chick embryo, read-out: amount inhibiting angiogenesis by 50% (converted)
# Description: Ten day old embryonated chicken eggs (McIntyre Poultry; Ramona Calif.) were candled to illuminate blood vessels under the shell and an area with a minimum of small blood vessels is identified. The CAM was dropped away from the eggshell in this area by grinding a small hole in the mineralized shell and applying pressure to the underlying inner shell membrane. This procedure caused an air pocket to shift from the wide end of the egg to the identified area and forcing a circular region of the CAM approximately 2 cm in diameter to drop away from the shell. […]
# Fibronectin, vitronectin and fibronectin fragments (59 pmol in a final volume of 25 μl) were applied to stimulated or unstimulated CAM's. […] Blood vessel branch points in the 5 mm filter disk area were counted at 30× magnification in a blinded fashion as a size-independent quantitative indicator of vascular sprouting in response to growth factors. […] Thus, counting of blood vessel branch points is a useful quantitative means of obtaining an angiogenic index (Brooks et al., In “Methods in Molecular Biology” (Humana Press 1999). At least ten embryos were used per treatment group. Each experiment was performed a minimum of three times.
# Data was evaluated in terms of average number of blood vessel branch points per treatment group +/−standard error of measurement . […]
Molecule,effect on cell attachment to vitronectin [1],effect on VEGF angiogenesis [2],effect on bFGF-induced angiogenesis [3],effect on tumor size [4],effect on adhesion to fibronectin [5],effect on adhesion to fibronectin [6],effect on ligand binding to α5β1 (integrin α5β1),effect on ligand binding to αVβ3 and other integrins (integrin αVβ3),effect on adhesion to fibronectin (α5^+ HT29 cells),effect on endothelial cell migration on fibronectin (HUVEC's),IC50 [7] [nM]
Cc1cc(C)c(S(=O)(=O)N[C@@H](CNC(=O)C2=NOC3(C2)CC(CNc2ccccn2)N(C(=O)OCc2ccccc2)C3)C(=O)O)c(C)c1 (some centres unmarked) [SJ749],ineffective,did not block,blocked; also recorded: dose dependent inhibitory effect; also recorded: reduced or inhibited angiogenesis in a dose dependent manner,induced tumor regression,blocked,blocked,selectively inhibited; also recorded: interfered,substantially less effective,inhibitory effect,highly effective,7.5
"CATAERWRC [""scrambled"" control peptide]",little effect,,did not inhibit,continued to increase in size,little effect,little effect,,,little effect,,
